Data taken from patent publication US20230081426A1, “COMPOUNDS AND METHODS FOR KRAS MODULATION AND INDICATIONS THEREFOR” (Plexxikon Inc., priority 2020, published 2023).

Key:
[1] = target: T1, G12V-mutant human KRAS (amino acid residues 1-188) (Homo sapiens, UniProt P01116, G12V); assay: KRAS Binding Competition Assay (AlphaScreen; biotinylated KRpep-2d analogue), G12V; conditions: geometric mean, read-out: KRAS GMean IC50 (uM) MUTATION: G12V
T1 construct: G12V-mutant human KRAS (amino acid residues 1-188) with FLAG tag was purified from E. coli; made in house; host or cells: E. coli
Experimental: Compound binding disrupts the interaction of KRpep-2d with KRAS, leading to a decrease in Alpha signal.
All assay components were prepared in 20 mM HEPES (pH 7.5), 100 mM NaCl, 5 mM MgCl2, 0.01% Tween-20, and 0.01% BSA. Biotinylated analogues of KRpep-2d were custom synthesized. The binding competition assays were performed using 10 nM of mutant KRAS and 10 nM of biotinylated KRpep-2d analogue. 19 μL of KRAS protein and 4 μL of biotinylated KRpep-2d were added to the wells of a 384-well plate containing 1 μL of various concentrations of test compound or DMSO vehicle. 16 wells containing KRAS, biotinylated KRpep-2d, and 5% DMSO served as high controls. 16 wells containing KRAS only and 5% DMSO served as low controls. Binding reactions were incubated for 1 hour at 25° C., then Anti-Flag Acceptor and Streptavidin Donor Alpha beads were added at a final concentration of 10 μg/mL for an additional hour at room temperature. Alpha signal was read out on a Perkin Elmer Envision HTS instrument. The percentage inhibition at individual compound concentrations relative to high and low controls was calculated. The data were analyzed by using nonlinear regression to generate IC50 values.

[2] = target: T2, G12D-mutant human KRAS (amino acid residues 1-188) (Homo sapiens, UniProt P01116, G12D); assay: KRAS Binding Disruption Assay (AlphaScreen; biotinylated KRpep-2d analogue or RAF1-RBD), G12D; conditions: KRAS G12D; geometric mean; read-out: KRAS GMean IC50 (uM) MUTATION: G12D
T2 construct: G12D or G12C-mutant human KRAS (amino acid residues 1-188) with FLAG tag; made in house; host or cells: E. coli
In short: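 Compounds are titrated against 5-20 nM mutant KRAS and 5-20 nM of either a biotinylated KRpep-2d analogue or RAF1-RBD, incubated 1 h at 25° C. Disruption is detected as reduced Alpha signal after 1 h with donor and acceptor beads at 10 μg/mL.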

| IC50 [1] | IC50 [2] | Structure (SMILES) |
| --- | --- | --- |
| 10 to 100 µM | 10 to 100 µM | CN1CCC[C@H]1COc1nc(N2C[C@H]3CC[C@@H](C2)N3)c2ccc(-c3c(O)cccc3F)cc2n1 [P-0165, 2-(4-((1R,5S)-3,8-diazabicyclo[3.2.1]octan-3-yl)-2-(((S)-1-methylpyrrolidin-2-yl)methoxy)quinazolin-7-yl)-3-fluorophenol] |
| 10 to 100 µM | 100 to 1000 µM | CN1CCC[C@H]1COc1nc(N2C[C@H]3CC[C@@H](C2)N3)c2ccc(-c3ccnc(N)c3)cc2n1 [P-0168, 4-(4-((1R,5S)-3,8-diazabicyclo[3.2.1]octan-3-yl)-2-(((S)-1-methylpyrrolidin-2-yl)methoxy)quinazolin-7-yl)pyridin-2-amine] |
| 10 to 100 µM | 0.0001 to 10 µM | Cc1cccc2c1N(c1ccc3c(N4C[C@H]5CC[C@@H](C4)N5)nc(OC[C@@H]4CCCN4C)nc3c1F)CCC2 [P-0435, 4-((1R,5S)-3,8-diazabicyclo[3.2.1]octan-3-yl)-8-fluoro-7-(8-methyl-3,4-dihydroquinolin-1(2H)-yl)-2-(((S)-1-methylpyrrolidin-2-yl)methoxy)quinazoline] |
| 10 to 100 µM | 10 to 100 µM | CN1CCC[C@H]1COc1nc(N2[C@@H]3CC[C@H]2CN(C(=O)CS(N)(=O)=O)C3)c2ccc(-c3cc(O)cc4ccccc34)cc2n1 [P-0315, 2-((1R,5S)-8-(7-(3-hydroxynaphthalen-1-yl)-2-(((S)-1-methylpyrrolidin-2-yl)methoxy)quinazolin-4-yl)-3,8-diazabicyclo[3.2.1]octan-3-yl)-2-oxoethane-1-sulfonamide] |
| 10 to 100 µM | 0.0001 to 10 µM | CN1CCC[C@H]1COc1nc(N2CC3CCC(C2)N3C(=O)CCCN2CCOCC2)c2ccc(-c3cc(O)cc4ccccc34)c(F)c2n1 (racemic) [P-0429, 1-((1R,5S)-3-(8-fluoro-7-(3-hydroxynaphthalen-1-yl)-2-(((RS)-1-methylpyrrolidin-2-yl)methoxy)quinazolin-4-yl)-3,8-diazabicyclo[3.2.1]octan-8-yl)-4-morpholinobutan-1-one] |
| 10 to 100 µM | 0.0001 to 10 µM | CN1CCC[C@H]1COc1nc(N2C[C@H]3CC[C@@H](C2)N3)c2cc(F)c(N3CCNc4ccccc43)c(F)c2n1 [P-0305, 4-((1R,5S)-3,8-diazabicyclo[3.2.1]octan-3-yl)-7-(3,4-dihydroquinoxalin-1(2H)-yl)-6,8-difluoro-2-(((S)-1-methylpyrrolidin-2-yl)methoxy)quinazoline] |
| 100 to 1000 µM | 0.0001 to 10 µM | CN1CCC[C@H]1COc1nc(N2C[C@H]3CC[C@@H](C2)N3)c2ccc(-c3c[nH]c4ccc(Cl)cc34)c(F)c2n1 [P-0295, 4-((1R,5S)-3,8-diazabicyclo[3.2.1]octan-3-yl)-7-(5-chloro-1H-indol-3-yl)-8-fluoro-2-(((S)-1-methylpyrrolidin-2-yl)methoxy)quinazoline] |
| 10 to 100 µM | 10 to 100 µM | CN1CCC[C@H]1COc1nc(N2[C@@H]3CC[C@H]2CNC3)c2ccc(-c3cc(CO)cc4ccccc34)cc2n1 [P-0304, (4-(4-((1R,5S)-3,8-diazabicyclo[3.2.1]octan-8-yl)-2-(((S)-1-methylpyrrolidin-2-yl)methoxy)quinazolin-7-yl)naphthalen-2-yl)methanol] |
| 10 to 100 µM | 100 to 1000 µM | CN1CCC[C@H]1COc1nc(N2C[C@H]3CC[C@@H](C2)N3C(=O)Cc2cc[nH]n2)c2ccc(-c3cc(O)cc4ccccc34)c(F)c2n1 [P-0470, 1-((1R,5S)-3-(8-fluoro-7-(3-hydroxynaphthalen-1-yl)-2-(((S)-1-methylpyrrolidin-2-yl)methoxy)quinazolin-4-yl)-3,8-diazabicyclo[3.2.1]octan-8-yl)-2-(1H-pyrazol-3-yl)ethan-1-one] |
| 10 to 100 µM | 0.0001 to 10 µM | Fc1c(-c2c(C(F)(F)F)ccc3[nH]ncc23)ccc2c(N3C[C@H]4CC[C@@H](C3)N4)nc(OCC34CCCN3CCC4)nc12 [P-0506, 4-((1R,5S)-3,8-diazabicyclo[3.2.1]octan-3-yl)-8-fluoro-2-((tetrahydro-1H-pyrrolizin-7a(5H)-yl)methoxy)-7-(5-(trifluoromethyl)-1H-indazol-4-yl)quinazoline] |
| 0.0001 to 10 µM | 0.0001 to 10 µM | O=C(CCCN1CCCCC1)N1[C@@H]2CC[C@H]1CN(c1nc(OCC34CCCN3CCC4)nc3c(F)c(-c4cc(O)cc5ccccc45)ccc13)C2 [P-0150, 1-((1R,5S)-3-(8-fluoro-7-(3-hydroxynaphthalen-1-yl)-2-((tetrahydro-1H-pyrrolizin-7a(5H)-yl)methoxy)quinazolin-4-yl)-3,8-diazabicyclo[3.2.1]octan-8-yl)-4-(piperidin-1-yl)butan-1-one] |
| 0.0001 to 10 µM | 0.0001 to 10 µM | CN1CCC[C@H]1COc1nc(N2C[C@H]3CC[C@@H](C2)N3C(=O)CO)c2ccc(-c3cc(O)cc4ccccc34)c(F)c2n1 [P-0104, 1-((1R,5S)-3-(8-fluoro-7-(3-hydroxynaphthalen-1-yl)-2-(((S)-1-methylpyrrolidin-2-yl)methoxy)quinazolin-4-yl)-3,8-diazabicyclo[3.2.1]octan-8-yl)-2-hydroxyethan-1-one] |
| 10 to 100 µM | 10 to 100 µM | CN1CCC[C@H]1COc1nc(N2C[C@H]3CC[C@@H](C2)N3)c2ccc(-c3c[nH]c4cccc(Cl)c34)c(F)c2n1 [P-0294, 4-((1R,5S)-3,8-diazabicyclo[3.2.1]octan-3-yl)-7-(4-chloro-1H-indol-3-yl)-8-fluoro-2-(((S)-1-methylpyrrolidin-2-yl)methoxy)quinazoline] |
| 0.0001 to 10 µM | 0.0001 to 10 µM | Oc1cc(-c2c(Cl)cc3c(N4C[C@H]5CC[C@@H](C4)N5)nc(OCC45CCCN4CC(F)(F)C5)nc3c2F)c2ccccc2c1 (stereo partly drawn) [P-0047, 4-(4-((1R,5S)-3,8-diazabicyclo[3.2.1]octan-3-yl)-6-chloro-2-((2,2-difluorotetrahydro-1H-pyrrolizin-7a(5H)-yl)methoxy)-8-fluoroquinazolin-7-yl)naphthalen-2-ol] |
| 0.0001 to 10 µM | 0.0001 to 10 µM | CC(=O)OCC(=O)N1[C@@H]2CC[C@H]1CN(c1nc(OCC34CCCN3CCC4)nc3cc(-c4cc(O)cc5ccccc45)ccc13)C2 [P-0089, 2-((1R,5S)-3-(7-(3-hydroxynaphthalen-1-yl)-2-((tetrahydro-1H-pyrrolizin-7a(5H)-yl)methoxy)quinazolin-4-yl)-3,8-diazabicyclo[3.2.1]octan-8-yl)-2-oxoethyl acetate] |
| 100 to 1000 µM | 10 to 100 µM | CN1CCC[C@H]1COc1nc(N2C[C@H]3CC[C@@H](C2)N3)c2ccc(-c3nc(N)cc4cccnc34)c(F)c2n1 [P-0379, 8-(4-((1R,5S)-3,8-diazabicyclo[3.2.1]octan-3-yl)-8-fluoro-2-(((S)-1-methylpyrrolidin-2-yl)methoxy)quinazolin-7-yl)-1,7-naphthyridin-6-amine] |
| 100 to 1000 µM | 10 to 100 µM | CN1CCC[C@H]1COc1nc(N2C[C@H]3CC[C@@H](C2)N3)c2ccc(-n3nc(O)c4cccc(F)c43)c(F)c2n1 [P-0458, 1-(4-((1R,5S)-3,8-diazabicyclo[3.2.1]octan-3-yl)-8-fluoro-2-(((S)-1-methylpyrrolidin-2-yl)methoxy)quinazolin-7-yl)-7-fluoro-1H-indazol-3-ol] |
| 10 to 100 µM | 10 to 100 µM | Cc1cccc(N)c1-c1ccc2c(N3C[C@H]4CC[C@@H](C3)N4)nc(OC[C@@H]3CCCN3C)nc2c1 [P-0343, 2-(4-((1R,5S)-3,8-diazabicyclo[3.2.1]octan-3-yl)-2-(((S)-1-methylpyrrolidin-2-yl)methoxy)quinazolin-7-yl)-3-methylaniline] |
| 0.0001 to 10 µM | 0.0001 to 10 µM | CCOC(=O)CNC(=O)N1[C@@H]2CC[C@H]1CN(c1nc(OCC34CCCN3CCC4)nc3cc(-c4cc(O)cc5ccccc45)ccc13)C2 [P-0090, ethyl ((1R,5S)-3-(7-(3-hydroxynaphthalen-1-yl)-2-((tetrahydro-1H-pyrrolizin-7a(5H)-yl)methoxy)quinazolin-4-yl)-3,8-diazabicyclo[3.2.1]octane-8-carbonyl)glycinate] |
| 10 to 100 µM | 10 to 100 µM | CN1CCC[C@H]1COc1nc(N2CC3CCC(C2)N3)c2ccc(N3CC(O)Cc4ccccc43)cc2n1 (mixture of isomers) [P-0256, 1-(4-((1R,5S)-3,8-diazabicyclo[3.2.1]octan-3-yl)-2-(((RS)-1-methylpyrrolidin-2-yl)methoxy)quinazolin-7-yl)-1,2,3,4-tetrahydroquinolin-3-ol] |
| 100 to 1000 µM | 10 to 100 µM | CN1CCC[C@H]1COc1nc(N2[C@@H]3CC[C@H]2CN(C(=O)Cc2cnn(C)c2)C3)c2ccc(-c3cc(O)cc4ccccc34)cc2n1 [P-0228, 1-((1R,5S)-8-(7-(3-hydroxynaphthalen-1-yl)-2-(((S)-1-methylpyrrolidin-2-yl)methoxy)quinazolin-4-yl)-3,8-diazabicyclo[3.2.1]octan-3-yl)-2-(1-methyl-1H-pyrazol-4-yl)ethan-1-one] |
